pIC50: −log10 of the molar value.

Endothelial lipase (EL), sequence (Q9Y5X9 21-500): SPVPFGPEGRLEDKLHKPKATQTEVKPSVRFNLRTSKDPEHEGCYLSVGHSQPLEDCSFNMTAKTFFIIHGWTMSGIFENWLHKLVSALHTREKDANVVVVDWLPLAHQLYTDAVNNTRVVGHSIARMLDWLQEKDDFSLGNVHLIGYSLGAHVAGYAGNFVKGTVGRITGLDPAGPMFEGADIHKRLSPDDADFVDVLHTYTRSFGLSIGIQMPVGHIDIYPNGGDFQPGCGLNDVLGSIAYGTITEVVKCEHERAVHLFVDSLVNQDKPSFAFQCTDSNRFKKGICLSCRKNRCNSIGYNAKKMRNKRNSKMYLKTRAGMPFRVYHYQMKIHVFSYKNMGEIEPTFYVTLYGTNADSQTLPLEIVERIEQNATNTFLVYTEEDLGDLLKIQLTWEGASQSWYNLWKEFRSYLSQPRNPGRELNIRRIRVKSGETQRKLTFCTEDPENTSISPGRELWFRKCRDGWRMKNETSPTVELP

For the assay, the target named is Endothelial lipase (EL) (Homo sapiens (Human), UniProt Q9Y5X9). As to the kind of experiment: Endothelial lipase (EL) enzymatic assay with fluorescent substrate A10070 in DMPG vesicles. It counts as biochemical. The essentials:
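Vesicles prepared: A10070 dried with DMPG, resuspended in HEPES pH 8.0/NaCl/EDTA, sonicated on ice. Enzyme incubated with compound 30 min at 37° C. Reaction started with 1:10 diluted vesicles. Fluorescence (490/530 nm) followed 60 min; slope from 300–900 secs gives rate.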
The compound `COCCS(=O)(=O)C(C(=O)NCC(=O)NC1CC1)c1nc2ccc(-c3cccnc3Cl)cc2s1` (centres unmarked) [Example 297, 2-[6-(2-chloropyridin-3-yl)-1,3-benzothiazol-2-yl]-N-2-(2-methoxyethane-sulfonyl)acetamide] showed a pIC50 of 7.07.

Regarding `CCOc1ccc(-c2ccc3nc(C(C(=O)NCC(=O)NC4CC4)S(=O)(=O)CCOC)sc3c2)cn1` (centres unmarked) [Example 299, N-[(cyclopropyl-carbamoyl)methyl]-2-[6-(6-ethoxypyridin-3-yl)-1,3-benzothiazol-2-yl]-2-(2-methoxyethane-sulfonyl)acetamide], the pIC50 is 6.93.

Compound `COCCS(=O)(=O)C(C(=O)NCC(=O)NC1CC1)c1nc2ccc(-c3ccc(C4CC4)nc3)cc2s1` (centres unmarked) [Example 300, N-[(cyclopropyl-carbamoyl)methyl]-2-[6-(6-cyclopropyl-pyridin-3-yl)-1,3-benzothiazol-2-yl]-2-(2-methoxyethane-sulfonyl)acetamide] showed a pIC50 of 6.90.

In the case of `COCCS(=O)(=O)C(C(=O)NCC(=O)NC1CC1)c1nc2ccc(-c3cnc(C(F)(F)F)nc3)cc2s1` (centres unmarked) [Example 301, N-[(cyclopropyl-carbamoyl)methyl]-2-(2-methoxyethane-sulfonyl)-2-{6-[2-(trifluoromethyl)pyrimidin-5-yl]-1,3-benzothiazol-2-yl}acetamide], the pIC50 was 6.81.

For the compound `COCCS(=O)(=O)C(C(=O)NCC(=O)NC1CC1)c1nc2ccc(-c3ccc(F)nc3F)cc2s1` (centres unmarked) [Example 302, N-[(cyclopropyl-carbamoyl)methyl]-2-[6-(2,6-difluoropyridin-3-yl)-1,3-benzothiazol-2-yl]-2-(2-methoxyethane-sulfonyl)acetamide], the negative logarithm of the IC50 (pIC50) is 6.80.

For the compound `COCCS(=O)(=O)C(C(=O)NCC(=O)NC1CC1)c1nc2ccc(-c3ccc(Cl)cn3)cc2s1` (centres unmarked) [Example 303, 2-[6-(5-chloropyridin-2-yl)-1,3-benzothiazol-2-yl]-N-[(cyclopropyl-carbamoyl)methyl]-2-(2-methoxyethane-sulfonyl)acetamide], the pIC50 is 6.61.

In the case of `COCCS(=O)(=O)C(C(=O)NCC(=O)NC1CC1)c1nc2ccc(-c3cncc(Cl)c3)cc2s1` (centres unmarked) [Example 304], the pIC50 was 7.28.

As to `COCCS(=O)(=O)C(C(=O)NCC(=O)NC1CC1)c1nc2ccc(-c3ccccc3)cc2s1` (centres unmarked) [Example 305, N-[(cyclopropyl-carbamoyl)methyl]-2-(2-methoxyethane-sulfonyl)-2-(6-phenyl-1,3-benzothiazol-2-yl) acetamide], the pIC50 was 8.15.

`COCCNC(=O)c1ccc(-c2ccc3nc(C(C(=O)NCC(=O)NC4CC4)S(=O)(=O)CCOC)sc3c2)cc1` (centres unmarked) [Example 306, 4-[2-({[(cyclopropyl-carbamoyl)methyl]carbamoyl}(2-methoxyethane-sulfonyl)methyl)-1,3-benzothiazol-6-yl]-N-(2-methoxyethyl) benzamide] showed a pIC50 of 7.89.

The compound `COCCS(=O)(=O)C(C(=O)NCC(=O)NC1CC1)c1nc2ccc(-c3ccc(F)cc3)cc2s1` (centres unmarked) [Example 307, N-[(cyclopropyl-carbamoyl)methyl]-2-[6-(4-fluorophenyl)-1,3-benzothiazol-2-yl]-2-(2-methoxyethane-sulfonyl)acetamide] had a pIC50 of 7.82.

In the case of `COCCS(=O)(=O)C(C(=O)NCC(=O)NC1CC1)c1nc2ccc(-c3ccc(COC)cc3)cc2s1` (centres unmarked) [Example 308, N-[(cyclopropyl-carbamoyl)methyl]-2-(2-methoxyethane-sulfonyl)-2-{6-[4-(methoxymethyl)phenyl]-1,3-benzothiazol-2-yl}acetamide], the pIC50 is 7.57.

On to `COCCS(=O)(=O)C(C(=O)NCC(=O)NC1CC1)c1nc2ccc(-c3ccc(C(=O)N4CCOCC4)cc3)cc2s1` (centres unmarked) [Example 309, N-[(cyclopropyl-carbamoyl)methyl]-2-(2-methoxyethane-sulfonyl)-2-{6-[4-(morpholine-4-arbonyl)phenyl]-1,3-benzothiazol-2-yl}acetamide], for which the pIC50 is 7.30.

In turn, `COCCS(=O)(=O)C(C(=O)NCC(=O)NC1CC1)c1nc2ccc(-c3cncnc3)cc2s1` (centres unmarked) [Example 310, N-[(cyclopropyl-carbamoyl)methyl]-2-(2-methoxyethane-sulfonyl)-2-[6-(pyrimidin-5-yl)-1,3-benzothiazol-2-yl]acetamide] gave a pIC50 of 7.03.

As for `COCCS(=O)(=O)C(C(=O)NCC(=O)NC1CC1)c1nc2ccc(-c3ccnc(F)c3)cc2s1` (centres unmarked) [Example 311, N-[(cyclopropyl-carbamoyl)methyl]-2-[6-(2-fluoropyridin-4-yl)-1,3-benzothiazol-2-yl]-2-(2-methoxyethane-sulfonyl)acetamide], the pIC50 is 7.03.

For `COCCS(=O)(=O)C(C(=O)NCC(=O)NC1CC1)c1nc2ccc(-c3cccc(Cl)n3)cc2s1` (centres unmarked) [Example 312, 2-[6-(6-chloropyridin-2-yl)-1,3-benzothiazol-2-yl]-N-[(cyclopropyl-carbamoyl)methyl]-2-(2-methoxyethane-sulfonyl)acetamide], the pIC50 was 6.73.

Take `COCCS(=O)(=O)C(C(=O)NCC(=O)NC1CC1)c1nc2ccc(-c3ccnn3C)cc2s1` (centres unmarked) [Example 313, N-[(cyclopropyl-carbamoyl)methyl]-2-(2-methoxyethane-sulfonyl)-2-[6-(1-methyl-1H-pyrazol-5-yl)-1,3-benzothiazol-2-yl]acetamide]: the pIC50 is 6.50.

As to `COCCS(=O)(=O)C(C(=O)NCC(=O)NC1CC1)c1nc2ccc(-c3cccc(F)n3)cc2s1` (centres unmarked) [Example 314, N-[(cyclopropyl-carbamoyl)methyl]-2-[6-(6-fluoropyridin-2-yl)-1,3-benzothiazol-2-yl]-2-(2-methoxyethane-sulfonyl)acetamide], the pIC50 was 6.82.

`COCCS(=O)(=O)C(C(=O)NCC(=O)NC1CC1)c1nc2ccc(-c3ccc(=O)n(C)c3)cc2s1` (centres unmarked) [Example 315, N-[(cyclopropyl-carbamoyl)methyl]-2-(2-methoxyethane-sulfonyl)-2-[6-(1-methyl-6-oxo-1,6-dihydropyridin-3-yl)-1,3-benzothiazol-2-yl}acetamide] gave a pIC50 of 7.92.

Consider `COCCS(=O)(=O)C(C(=O)NCC(=O)NC1CC1)c1nc2ccc(-c3ccn(C)c(=O)c3)cc2s1` (centres unmarked) [Example 316, N-[(cyclopropyl-carbamoyl)methyl]-2-(2-methoxyethane-sulfonyl)-2-[6-(1-methyl-2-oxo-1,2-dihydropyridin-4-yl)-1,3-benzothiazol-2-yl]acetamide], for which the pIC50 is 7.89.

The compound `COCCS(=O)(=O)C(C(=O)NCC(=O)NC1CC1)c1nc2ccc(-c3cc(C)nn3C)cc2s1` (centres unmarked) [Example 317, N-[(cyclopropyl-carbamoyl)methyl]-2-[6-(1,3-dimethyl-1H-pyrazol-5-yl)-1,3-benzothiazol-2-yl]-2-(2-methoxyethane-sulfonyl)acetamide] gave a pIC50 of 8.40.

The compound `COCCS(=O)(=O)C(C(=O)NCC(=O)NC1CC1)c1nc2ccc(-c3cccnc3F)cc2s1` (centres unmarked) [Example 318, N-[(cyclopropyl-carbamoyl)methyl]-2-[6-(2-fluoropyridin-3-yl)-1,3-benzothiazol-2-yl]-2-(2-methoxyethane-sulfonyl)acetamide] gave a pIC50 of 8.15.

For `Cc1cc(F)ncc1-c1cc2sc(C(C(=O)NCC(=O)NC3CC3)S(C)(=O)=O)nc2cc1F` (centres unmarked) [Example 319, N-[(cyclopropyl-carbamoyl)methyl]-2-[5-fluoro-6-(6-fluoro-4-methylpyridin-3-yl)-1,3-benzothiazol-2-yl]-2-methanesulfonyl-acetamide], the negative logarithm of the IC50 (pIC50) is 7.82.

Compound `CS(=O)(=O)C(C(=O)NCC(=O)NC1CC1)c1nc2cc(F)c(-c3ccnc(F)c3)cc2s1` (centres unmarked) [Example 321, N-[(cyclopropyl-carbamoyl)methyl]-2-[5-fluoro-6-(2-fluoropyridin-4-yl)-1,3-benzothiazol-2-yl]-2-methanesulfonyl-acetamide] had a pIC50 of 7.85.

`COc1ncccc1-c1cc2sc(C(C(=O)NCC(=O)NC3CC3)S(C)(=O)=O)nc2cc1F` (centres unmarked) [Example 322, N-[(cyclopropyl-carbamoyl)methyl]-2-[5-fluoro-6-(2-methoxypyridin-3-yl)-1,3-benzothiazol-2-yl]-2-methanesulfonyl-acetamide] gave a pIC50 of 8.30.

With `CS(=O)(=O)C(C(=O)NCC(=O)NC1CC1)c1nc2cc(F)c(-c3cncc(F)c3)cc2s1` (centres unmarked) [Example 323, N-[(cyclopropyl-carbamoyl)methyl]-2-[5-fluoro-6-(5-fluoropyridin-3-yl)-1,3-benzothiazol-2-yl]-2-methanesulfonyl-acetamide], the pIC50 was 7.64.

As for `COc1cncc(-c2cc3sc(C(C(=O)NCC(=O)NC4CC4)S(C)(=O)=O)nc3cc2F)c1` (centres unmarked) [Example 324, N-[(cyclopropyl-carbamoyl)methyl]-2-[5-fluoro-6-(5-methoxypyridin-3-yl)-1,3-benzothiazol-2-yl]-2-methanesulfonyl-acetamide], the pIC50 is 7.82.

Turning to `CS(=O)(=O)C(C(=O)NCC(=O)NC1CC1)c1nc2cc(F)c(-c3ccnc(C(F)(F)F)c3)cc2s1` (centres unmarked) [Example 325, N-[(cyclopropyl-carbamoyl)methyl]-2-{5-fluoro-6-[2-(trifluoromethyl)pyridin-4-yl]-1,3-benzothiazol-2-yl}-2-methanesulfonyl-acetamide], the pIC50 is 7.82.

In turn, `CS(=O)(=O)C(C(=O)NCC(=O)NC1CC1)c1nc2cc(F)c(-c3cccnc3C(F)(F)F)cc2s1` (centres unmarked) [Example 326, N-[(cyclopropyl-carbamoyl)methyl]-2-{5-fluoro-6-[2-(trifluoromethyl)pyridin-3-yl]-1,3-benzothiazol-2-yl}-2-methanesulfonyl-acetamide] gave a pIC50 of 7.19.

`CS(=O)(=O)C(C(=O)NCC(=O)NC1CC1)c1nc2cc(F)c(-c3cccc(C(N)=O)c3)cc2s1` (centres unmarked) [Example 327, 3-[2-({[(cyclopropyl-carbamoyl)methyl]carbamoyl} (methanesulfonyl)methyl)-5-fluoro-1,3-benzothiazol-6-yl]benzamide]: the negative-log IC50 (pIC50) is 7.72.

A word on the pIC50: it is the negative decadic logarithm of the IC50, by convention in mol/L. Lower therefore signals a large IC50.

Source of the values: patent publication US10173991B2, “Sulfone amide linked benzothiazole inhibitors of endothelial lipase” (BRISTOL-MYERS SQUIBB COMPANY, priority 2014, dated 2019).
